For assay [1], the target named is T1, Kappa (h) (KOP) (agonist radioligand) (Homo sapiens, UniProt P41145).
T1 construct: CEREP (Eurofins, France), contract panel
The experiment in a line: Radioligand binding panel (Eurofins/CEREP), kappa opioid. Conditions: 10^−5 M; % inhibition of control specific binding; read-out: % Inhibition at 10^−5M Benedin. The protocol:
(§1) Benedin was tested at 10^−5 M, calculated as a % inhibition of control specific binding of a radioactively labeled ligand specific for each target.
(§2) This binding profile panel was broadly defined with roughly an equal number of selective, central and peripheral therapeutically relevant targets, including native animal tissues, radioligands and specific enzymes involved in cell cycle regulation in accordance with Eurofins Standard Operating Procedure.
(§3) For radioligand binding experiments, the half maximal inhibitory concentration (IC50) and the half maximal effective concentration (EC50) values were determined (via computer software) by nonlinear regression analysis of the competition curves using Hill equation curve fitting. The inhibition constants (Ki) were calculated using the Cheng-Prusoff equation (Ki=IC50/(1+(L/KD)), where L is the concentration of radioligand in the assay, and KD is the affinity of the radioligand for the receptor.^60
(§4) The results are expressed as a % control specific binding ([measured specific binding/control specific binding]×100) and as a % inhibition of control specific binding (100−[(measured specific binding/control specific binding)×100] obtained in the presence of the test compounds. […]

Assay [2] concerns Mice, C57BL/6J, male. The experiment in a line: Novel object recognition (NOR) test, long-term memory. It is filed as in vivo. Particulars: for DI Discrimination Index = 100 × (N − F)/(N + F) / N − F Exploration time novel − familiar object: choice trial 72 h post treatment, mean, N = 16; for recognition of the familiar object, i.e. memory: 3-days interval. Here is the method:
Long-term episodic memory was tested in the NOR test, using a 3-days interval between the acquisition session (called sample trial) and the retention session (called choice trial). This method allows to detect an improvement of memory in the natural forgetting condition:
The test was carried out in circular boxes (30 cm diameter, 40 cm high). The objects to be discriminated (L≈1≈h≈3-4 cm) differed in both color and shape and were referred as yellow duck and blue lego. They were fixed with a magnet to the floor of the boxes at 5 cm of the wall, 20 cm distant. Apparently, they have no natural significance for mice and they have never been associated with a reinforcement. In order to rule out the possibility of scent traces left on the objects and therefore the dependency of the recognition capacity of mice on the olfactory cue, the objects and the ground of the box were washed with an odorless disinfectant (Sanicid® diluted in water) and dried between each trial. A camcorder was fixed to the ceiling above the box to record the animals' activity. The experiment was analyzed blindly at a later time.
On the week before the test, animals were handled by the experimenter in charge of the experiment in order to be not stressed at the time of testing. For this purpose, the experimenter placed a small amount of litter, and then the mouse on its hand. […] The NOR test was completed over five days (see FIG. 1): • Day 1: Habituation trial. Animals were individually placed for a 15-min free exploration session in empty open boxes. • Day 2. Treatment administration and sample trial. […] They were individually placed 30 min after in the apparatus for a 6-min session with two identical objects (Duck, 50% of animals or Lego, 50% of animals). • […]. […]. The mice were individually placed for a 6-min session in the apparatus with two objects (Duck and Lego), one of the objects presented in sample trials (termed as familiar objects) and a novel object (Lego, 50% of animals or Duck, 50% of animals).
The sample and choice trials were recorded with the camera located above the apparatus. The time spent by mice in exploring the objects was measured during the sample trial and the choice trial.
Exploration of an object was defined as follows: directing the nose to the object at a distance≤2 cm and/or touching it with the nose or forelimbs: turning around or biting the object, or sitting on the object were not considered as exploratory behavior.
Data recorded: • L=exploration time of the left object in the sample trial. • R=exploration time of the right object in the sample trial. • N=exploration time of the new object in the choice trial. • F=exploration time of the familiar object in the choice trial. Object recognition task indices include the following parameters: • Exploration indices: • ST=L+R=exploration time (left object+right object) in the sample trial. • CT=N+F=exploration time (new object+familiar object) in the choice trial. • Two memory indices: • N−F=difference of exploration time between the new object and the familiar object in the choice trial.
Statistical analyses: • Read-outs: DI, N−F, ST, CT, N, F • Unpaired Student's t test: Donep 2 group vs. Control group. • One-way ANOVA, Dunnett test: • Benedin groups vs. Control group. • Benedin groups vs. Donep 2 group. • Read-outs: DI and N−F, for all groups, paired Student's t test, difference vs. 0. • Body weight: one-way ANOVA.

Assay [3] has as its target T2, M3 (h) (antagonist radioligand) (Homo sapiens, UniProt P20309).
T2 construct: CEREP (Eurofins, France), contract panel
The experiment in a line: Radioligand binding panel (Eurofins/CEREP), M3. Particulars: 10^−5 M; % inhibition of control specific binding; read-out: % Inhibition at 10^−5M Benedin. Here is the method: as §1, §2, §3, §4

The target of assay [4] is T3, DAT (h) (antagonist radioligand) (Homo sapiens, UniProt Q01959).
T3 construct: CEREP (Eurofins, France), contract panel
T3 sequence (Q01959 whole entry): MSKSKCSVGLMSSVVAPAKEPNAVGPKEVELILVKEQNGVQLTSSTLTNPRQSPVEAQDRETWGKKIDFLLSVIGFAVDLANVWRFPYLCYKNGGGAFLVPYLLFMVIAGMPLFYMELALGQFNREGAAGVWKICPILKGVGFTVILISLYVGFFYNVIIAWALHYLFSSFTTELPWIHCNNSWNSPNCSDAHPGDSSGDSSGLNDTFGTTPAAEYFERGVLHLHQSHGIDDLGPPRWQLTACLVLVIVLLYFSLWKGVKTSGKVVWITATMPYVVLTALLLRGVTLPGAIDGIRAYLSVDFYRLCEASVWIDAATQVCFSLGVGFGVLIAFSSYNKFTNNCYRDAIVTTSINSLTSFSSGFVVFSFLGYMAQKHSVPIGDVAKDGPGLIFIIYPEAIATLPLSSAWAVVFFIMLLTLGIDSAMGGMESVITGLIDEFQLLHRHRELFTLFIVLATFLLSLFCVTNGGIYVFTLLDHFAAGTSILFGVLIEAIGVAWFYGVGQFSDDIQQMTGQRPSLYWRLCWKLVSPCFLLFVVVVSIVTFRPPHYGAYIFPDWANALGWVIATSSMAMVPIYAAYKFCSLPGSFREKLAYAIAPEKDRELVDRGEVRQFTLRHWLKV
The experiment in a line: Radioligand binding panel (Eurofins/CEREP), DAT. Particulars: % inhibition of control specific binding. Here is the method:
as §1, §2, §3, §4

Assay [5] has as its target T4, mu (h) (MOP) (agonist radioligand) (Homo sapiens, UniProt P35372).
T4 construct: CEREP (Eurofins, France), contract panel
Briefly: Radioligand binding panel (Eurofins/CEREP), mu opioid. Particulars: 10^−5 M; % inhibition of control specific binding; read-out: % Inhibition at 10^−5M Benedin. The protocol:
as §1, §2, §3, §4

T4 sequence (P35372 whole entry): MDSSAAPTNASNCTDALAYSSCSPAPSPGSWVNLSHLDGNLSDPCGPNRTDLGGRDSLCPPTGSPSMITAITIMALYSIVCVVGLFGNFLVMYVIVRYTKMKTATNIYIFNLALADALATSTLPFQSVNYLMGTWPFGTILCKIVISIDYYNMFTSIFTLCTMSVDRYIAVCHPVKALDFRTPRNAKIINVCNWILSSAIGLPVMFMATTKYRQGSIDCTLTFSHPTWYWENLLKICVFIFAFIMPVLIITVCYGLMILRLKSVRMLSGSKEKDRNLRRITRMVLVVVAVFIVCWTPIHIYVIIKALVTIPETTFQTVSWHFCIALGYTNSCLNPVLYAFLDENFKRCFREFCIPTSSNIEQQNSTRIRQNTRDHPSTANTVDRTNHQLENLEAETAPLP
T2 sequence (P20309 whole entry): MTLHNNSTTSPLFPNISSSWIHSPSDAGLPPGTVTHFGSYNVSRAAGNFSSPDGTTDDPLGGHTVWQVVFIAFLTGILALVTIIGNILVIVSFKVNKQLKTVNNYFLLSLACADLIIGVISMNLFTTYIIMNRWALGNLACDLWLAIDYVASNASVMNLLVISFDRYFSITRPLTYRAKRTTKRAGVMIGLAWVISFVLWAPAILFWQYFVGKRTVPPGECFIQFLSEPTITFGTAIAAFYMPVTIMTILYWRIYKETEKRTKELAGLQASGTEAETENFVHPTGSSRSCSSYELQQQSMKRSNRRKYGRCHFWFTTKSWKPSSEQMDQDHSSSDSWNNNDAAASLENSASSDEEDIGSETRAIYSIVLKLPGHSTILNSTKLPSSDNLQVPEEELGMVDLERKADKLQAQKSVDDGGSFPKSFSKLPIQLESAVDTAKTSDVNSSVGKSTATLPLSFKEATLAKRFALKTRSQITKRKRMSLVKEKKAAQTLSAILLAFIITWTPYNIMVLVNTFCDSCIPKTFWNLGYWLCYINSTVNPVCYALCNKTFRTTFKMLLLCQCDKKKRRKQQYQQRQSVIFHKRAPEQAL
T1 sequence (P41145 whole entry): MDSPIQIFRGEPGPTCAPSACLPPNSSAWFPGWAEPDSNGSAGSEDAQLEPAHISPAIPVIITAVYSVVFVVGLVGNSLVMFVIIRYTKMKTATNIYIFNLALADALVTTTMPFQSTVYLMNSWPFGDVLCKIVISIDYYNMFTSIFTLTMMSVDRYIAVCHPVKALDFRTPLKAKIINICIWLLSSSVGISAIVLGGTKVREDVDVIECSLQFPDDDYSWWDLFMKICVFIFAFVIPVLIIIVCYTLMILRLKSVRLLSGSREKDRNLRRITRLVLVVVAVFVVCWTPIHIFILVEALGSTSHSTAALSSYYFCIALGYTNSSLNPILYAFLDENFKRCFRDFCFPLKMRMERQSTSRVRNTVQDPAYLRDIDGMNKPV

The inhibition is the percentage by which the read-out fell short of the control. Consider `CN1CCCC(O)C1C(c1ccccc1)c1ccccc1` (centres unmarked) [Benedin, 2-benzhydryl-3-hydroxy-N-methyl-piperidine], for which the inhibition at 10 µM in assay [1] was 39.2%; in assay [3] it was 44.6%; in assay [4] (10^−5 M, read-out: % Inhibition at 10^−5M Benedin), 99.1%; in assay [5], 24.4%. The “DI Discrimination Index = 100 × (N − F)/(N + F)” value is “not significantly different from 0” in assay [2] (Benedin 0.1 mg/kg i.p. 30 min before sample trial); 12.0 in assay [2] (Benedin 0.1 mg/kg i.p. 30 min before sample trial, listed as NLS-11); “significantly higher than 0” in assay [2] (Benedin 0.5 mg/kg i.p. 30 min before sample trial); 23.5 in assay [2] (Benedin 0.5 mg/kg i.p. 30 min before sample trial, listed as NLS-11); “not significantly different from 0” in assay [2] (Benedin 1 mg/kg i.p. 30 min before sample trial); 13.0 in assay [2] (Benedin 1 mg/kg i.p. 30 min before sample trial, listed as NLS-11). Also, the “recognition of the familiar object, i.e. memory” value in assay [2] (Benedin 0.1 mg/kg i.p.) is “not significant”; in assay [2] (Benedin 0.5 mg/kg i.p.) it was “significant”; in assay [2] (Benedin 1 mg/kg i.p.), “not significant”. The “N − F Exploration time novel − familiar object” value in assay [2] (Benedin 0.1 mg/kg i.p.) was “not significantly different from 0”; in assay [2] (Benedin 0.1 mg/kg i.p., listed as NLS-11) it was 3.4 s; in assay [2] (Benedin 0.5 mg/kg i.p.), “significantly higher than 0”; in assay [2] (Benedin 0.5 mg/kg i.p., listed as NLS-11), 6.2 s; in assay [2] (Benedin 1 mg/kg i.p.) it was “not significantly different from 0”; in assay [2] (Benedin 1 mg/kg i.p., listed as NLS-11) it was 4.0 s. Further, in assay [4], the “% Inhibition at 10^−5M Benedin” value is on record as “appreciable potencies”.
